Laboratory results reported in patent US9522909B2, “Thiazolidinedione derivatives, preparation thereof and use thereof in cancer treatment” (UNIVERSITE DE LORRAINE, priority 2012, dated 2016).
Counter-ions that a name gives are not always drawn.

What was measured:
[1] = tested on: cryopreserved human hepatocytes (primary culture); test: Hepatocyte viability (MTT test) on suspended cryopreserved human hepatocytes; assay type: cell-based; conditions: 90 minutes incubation, relative to non treated cells, Table I campaign
Experimental: The hepatocyte viability corresponds to the percentage of surviving suspended human hepatocytes after 90 minutes of incubation with the compounds of the invention present at a concentration of […].
Hepatocyte viability was measured for different compounds according to the invention with cryopreserved human hepatocytes (primary culture) suspended and distributed in 96-well plates with a density of 0.1×10^6 cells per well, in a […] culture medium per well (DMEM+gentamycin (50 mg/L)+insulin (4 mg/L)+dexamethasone (1 μM)) in a CO2/air (5%/95%) humidified atmosphere at 37° C. After 30 minutes for attaining equilibrium, […] of culture medium containing the tested compounds (dissolved in DMSO) or of medium only containing DMSO (final concentration of 0.1%) were added with stirring at 900 rpm.
Cytotoxicity is evaluated with an MTT (Thiazolyl Blue Tetrazolium Bromide) test. The tested compounds or the DMSO are left to incubate for 90 minutes, and then 10 μL of MTT at 10 mg/10 mL are added per well for 30 mins. Next, the plates are centrifuged for 10 minutes at 2,000 g, the MTT is removed and some DMSO is added in an amount of 100 μL per well. The plates are gently shaked and then absorbance is measured at 595 nm by means of a spectrophotometric reader of micro-plates. The hepatocyte viability measured here corresponds to the percentage of surviving hepatocytes after 90 minutes of incubation with the compounds tested at a concentration of 100 μM, relatively to non treated cells.
The same tests were conducted for a concentration of compounds at 200 μM.
The tests were conducted in two distinct campaigns. In both cases, troglitazone (K) was used as a reference molecule.

[2] = Toxicity test on mice (maximum tolerated dose, intravenous injection); conditions: mouse, in vivo; female NMRI mice, intravenous injection into the tail vein, observed two weeks
Experimental: (§1) A toxicity test was conducted on mice for the molecules D and E. These molecules therefore only differ by the substituted methyl group on thiazolidinedione. As a comparison, the test was also conducted by using Δ2TGZ. These analyses were conducted on female NMRI mice weighing 20-25 g. Groups of three mice were set up: a non-injected control batch, a batch receiving the solvent of the molecules to be tested (water PPI, polyethylene glycol 400, absolute ethanol mixture in proportions 5/3/2), three other batches receiving the molecules to be tested. The compounds were injected into the tail vein of mice anaesthetized beforehand. The animals were weighed before and then 24 hours and 48 hours after intravenous injection of the products at the different tested doses and then they were also weighed three times a week for two weeks. The behavior of the whole of the mice was observed before, and then one hour, two hours and three hours after the intravenous injection and then daily for two weeks. The compounds were first tested at the limit of their solubility.

MCF7 = test: Antiproliferative activity (MTS) on MCF7; assay type: cell-based, human; conditions: Homo sapiens, MCF7, 72 hours; for inhibition at 10 µM: 10^-5 M, triplicate, read-out: percentage of inhibition of cell growth, MCF7; for IC50: averages of two independent values
Experimental: (§2) Antiproliferative activity was measured for different compounds according to the invention by analysis of cytoxicity at 10^−5M on diverse cancer cell lines in DMSO in triplicate. For certain molecules and certain lines, the same procedure was used for determining the IC50 values (the required concentration in μM for inhibiting by half the proliferation of the cells), by conducting cytotoxicity tests at concentrations from 0.005 μM to 100 μM in duplicate. The procedure is the following. The cells of the relevant line are sown in the suitable medium (see Table III) added with L-glutamine, with 10% (v/v) of fetal calf serum, 100 IU of penicillin, 100 μg/mL of streptomycin and 1.5 μg/mL of fungizone and maintained under 5% of CO2 at 37° C. 96-well plates are sown with the required number of cells per well (see Table III) in 200 μL of medium. 24 hours later, the chemical compounds to be investigated, dissolved in DMSO, are added and the media are maintained for 72 hours under these conditions with a set final concentration in DMSO (1%). The controls received an equal volume of DMSO. The number of viable cells is measured at 490 nm with the MTS reagent (Promega, Madison Wis.). The IC50s are calculated as the concentrations of compounds inducing 50% inhibition of cell proliferation.
(§3) Tables IV and V below indicate the percentage of inhibition of cell growth, i.e. the percentage of dead cells after treatment with a compound dose of 10^−5 M. The tests were conducted in triplicate.

HCT116 = test: Antiproliferative activity (MTS) on HCT116; assay type: cell-based; conditions: Homo sapiens, HCT-116; 10^-5 M, 72 hours, triplicate; read-out: percentage of inhibition of cell growth, HCT116
Experimental: as §2, §3

MDA231 = test: Antiproliferative activity (MTS) on MDA231; assay type: cell-based, human; conditions: Homo sapiens, MDA-MB-231, 72 hours; for inhibition at 10 µM: 10^-5 M, triplicate, read-out: percentage of inhibition of cell growth, MDA231; for IC50: averages of two independent values
Experimental: as §2, §3

MDA435 = test: Antiproliferative activity (MTS) on MDA435; assay type: cell-based; conditions: Homo sapiens, 10^-5 M, 72 hours, triplicate, read-out: percentage of inhibition of cell growth, MDA435
Experimental: as §2, §3

Mia-PaCa = test: Antiproliferative activity (MTS) on Mia-PaCa; assay type: cell-based; conditions: Homo sapiens, MIA PaCa-2, 72 hours; for inhibition at 10 µM: 10^-5 M, triplicate, read-out: percentage of inhibition of cell growth, Mia-PaCa; for IC50: averages of two independent values
Experimental: as §2, §3

HepG2 = test: Antiproliferative activity (MTS) on HepG2; assay type: cell-based; conditions: Homo sapiens, 72 hours; for inhibition at 10 µM: 10^-5 M, triplicate, read-out: percentage of inhibition of cell growth, HepG2; for IC50: averages of two independent values
Experimental: as §2, §3

PC3 = test: Antiproliferative activity (MTS) on PC3; assay type: cell-based; conditions: Homo sapiens, PC-3; 10^-5 M, 72 hours, triplicate; read-out: percentage of inhibition of cell growth, PC3
Experimental: as §2, §3

LNCaP = test: Antiproliferative activity (MTS) on LNCaP; assay type: cell-based; conditions: Homo sapiens, 72 hours; for inhibition at 10 µM: 10^-5 M, triplicate, read-out: percentage of inhibition of cell growth, LNCaP; for IC50: averages of two independent values
Experimental: as §2, §3

female NMRI mice = test: Toxicity test on mice (maximum tolerated dose, intravenous injection); conditions: mouse, in vivo, iv
Experimental: as §1

| Compound | Hepatocyte viability % (100 μM) [1] | Hepatocyte viability % (200 μM) [1] | MTD at 2 weeks [2] | inhibition at 10 µM (MCF7) | IC50 (MCF7) | inhibition at 10 µM (HCT116) | inhibition at 10 µM (MDA231) | IC50 (MDA231) | inhibition at 10 µM (MDA435) | inhibition at 10 µM (Mia-PaCa) | IC50 (Mia-PaCa) | inhibition at 10 µM (HepG2) | IC50 (HepG2) | inhibition at 10 µM (PC3) | inhibition at 10 µM (LNCaP) | IC50 (LNCaP) | maximum tolerated dose (female NMRI mice) |
| --- | --- | --- | --- | --- | --- | --- | --- | --- | --- | --- | --- | --- | --- | --- | --- | --- | --- |
| Cc1c(C)c2c(c(C)c1CCCCCCN)CCC(C)(COc1ccc(/C=C3\SC(=O)N(C)C3=O)cc1)O2 (racemic) [D, (±) 5-{4-[6-(6-amino-hexyl)-2,5,7,8-tetramethyl-chroman-2-ylmethoxy]-benzylidene}-3-methyl-thiazolidine-2,4-dione trifluoroacetate] | 83% | 83% | 65.5 mg/kg | 101% | 6.9 µM | 101% | 101% | 4.6 µM | 101% | 103% | 3.2 µM | 100% | 7.9 µM | 92% | 88% | 6.5 µM |  |
| Cc1c(C)c2c(c(C)c1CCCCCCN)CCC(C)(COc1ccc(/C=C3\SC(=O)NC3=O)cc1)O2 (racemic) [E, (±) 5-{4-[6-(6-amino-hexyl)-2,5,7,8-tetramethyl-chroman-2-ylmethoxy]-benzylidene}thiazolidine-2,4-dione trifluoroacetate] | 83% | 80% | 34 mg/kg | 97% | 6.4 µM | 93% | 92% | 4.7 µM | 65% | 94% | 3.9 µM | 87% | 3.1 µM | 40% | 53% | 5.1 µM |  |
| Cc1c(C)c2c(c(C)c1O)CCC(C)(COc1ccc(C=C3SC(=O)NC3=O)cc1)O2 (stereo not drawn) [Δ2TGZ, reference compound] |  |  |  |  |  |  |  |  |  |  |  |  |  |  |  |  | less than 34 mg/kg |
